Measured values published in US6790986B1, “Process for the preparation of gabapentin free from inorganic acids anions” (Farchemia S.r.l., priority 2003, dated 2004).
Like-named read-outs stand apart in the source and are kept apart here.

Legend:
[1] = hydroxybenzoate salts of gabapentin in water; precipitates from aqueous solution
From the text: Numerous processes for reducing the chloride ions content in gabapentin exist. […] The proportion of remaining hydrochloride admixtures should thereby not exceed 20 ppm. The same also applies to other mineral acids.”

[2] = storage stability (increase of lactam content on storage); format: physicochemical; settings: gabapentin obtained by the process; after one year at 25° C. and 50% humidity
Experimental: According to the invention, an aqueous solution containing approx. 10 to approx. 18 kg, preferably 13-15 kg, of gabapentin per 100 liters of water, at a temperature ranging from approx. 25 to approx. 60° C., preferably from 30 to 45° C., is added with the hydroxyacid in amounts of 0.95-1.05 mols per mol of gabapentin, the preferred molar ratio between the compounds being 1:1. The resulting suspension is stirred at the same temperature for 5-10 hours, then cooled to approx. 15-25° C. The resulting gabapentin hydroxybenzoate is dried under vacuum at approx. 50° C. The yield is approx. 90% on theoretical, with a assay higher than 99.5%. The resulting salt is suspended in a lower alcohol, preferably absolute ethanol, in amounts of approx. 3-5 liters per kg of salt, at a temperature of 15-25° C., and the suspension is added with an amount of tertiary amine (preferably tributylamine and most preferably N-ethyl-diisopropylamine (“Hünig base”)) in amounts of 1-1.2 mols per mol of gabapentin hydroxybenzoate. After stirring for some hours at the same temperature, the mixture is cooled to 5-10° C., the precipitated gabapentin is filtered or centrifuged, washed with the same alcohol, then stirred with ethanol containing approx. 10% by volume of water.

[3] = stated as known; cited from earlier work

| Structure (SMILES) | water-solubility [1] | increase of content in lactam on storage [2] | water-solubility [3] |
| --- | --- | --- | --- |
| NCC1(CC(=O)O)CCCCC1.O=C(O)c1ccccc1O [salicylate, gabapentin salicylate] | so poor |  |  |
| NCC1(CC(=O)O)CCCCC1 [gabapentin, 1-(aminomethyl)-cyclohexaneacetic acid] |  | does not undergo substantial increases | highly water-soluble |
| NCC1(CC(=O)O)CCCCC1.O=C(O)c1ccc(O)cc1 [gabapentin 4-hydroxybenzoate] | so poor |  |  |
